Reference: patent publication EP0603031A2, “Antiviral antibiotic BU-4724V and preparation thereof” (Bristol-Myers Squibb Company, priority 1992, dated 1994)
Like-named read-outs stand apart in the source and are kept apart here. Positions of bridges follow the written chain, without caps; N, C: chain ends. Residues, ends and D or L forms follow the SMILES beside them.

Key:
[1] = test system: herpes simplex virus type 1 (HSV-1) using the KOS strain; assay: Anti-HSV assay, inhibition of virus-induced cytopathic effect in Vero cells; assay type: cell-based; conditions: HSV-1 KOS, 72 hours at 37°C
Protocol: (§1) The in vitro antiviral activity of BU-4724V was assessed against the herpes simplex virus type 1 (HSV-1) using the KOS strain. The assay was done according to the reported protocol of C. McLaren et al. in Antiviral Research, 3, 223-234, (1986) with minor modification. Briefly, 50 µl of Eagle's MEM medium containing BU-4724V and then 200 µl of the Vero cell suspension (2 X 10⁴ cells/200 µl) were added to a well of a 96-well microtiter plate. To the well, 50µl of medium containing approximately 30 times of the 50% tissue culture infectious dose (50% TCID) of virus was added. In a parallel experiment, the same set of cells without virus infection was prepared, which was for the determination of cytotoxicity of the sample. After 72 hours incubation at 37°C, the inhibition degree of virus-induced cytopathic effect and cytotoxicity by the sample were determined, respectively. The ID₅₀ is expressed as the concentration of a compound showing 50% growth inhibition of the cytopathic effect and the TD₅₀ as the concentration of a compound showing 50% growth inhibition of the cells in the absence of virus. Acyclovir was used as the reference compound for anti-HSV activity in the assay.

Vero cell = assay: Cytotoxicity in Vero cells without virus infection; assay type: cell-based; conditions: Vero cells in the absence of virus, 72 hours at 37°C
Protocol: as §1

HIV-1 RF = assay: XTT anti-HIV assay in CEM-SS cells; assay type: cell-based, human immunodeficiency virus; conditions: HIV-1 RF strain, read-out: IC₅₀
Protocol: (§2) The antiviral effect is expressed as the inhibitory concentration of a compound which reduces the number of viruses of the infected culture to 50% of that of the drug - untreated, control culture (IC₅₀). The cytotoxicity is expressed as the concentration of a compound which yields 50% of the number of viable cells of the untreated control cultures (IC₅₀). In this assay, 2',3'-Dideoxyinosine (ddI, Videx®) was also tested for anti-HIV activity.

HIV-1 IIIb = assay: XTT anti-HIV assay in CEM-SS cells; assay type: cell-based, human immunodeficiency virus; conditions: HIV-1 IIIb strain, read-out: IC₅₀
Protocol: as §2

HIV-2 CBL-20 = assay: XTT anti-HIV assay in CEM-SS cells; assay type: cell-based, human immunodeficiency virus; conditions: HIV-2 CBL-20 strain, read-out: IC₅₀
Excerpt: The CEM-SS cells were obtained from Peter Nara, AIDS Research and Reference Program, Division of AIDS, NIAID, NIH.
as §2

[2] = Cytotoxicity in CEM-SS cells (XTT assay); assay type: cell-based; conditions: human, 50% of viable cells of untreated control, read-out: cytotoxicity IC₅₀
Protocol: as §2

CEM-SS cells [3] = assay: Cytotoxicity in CEM-SS cells (XTT assay); assay type: cell-based; conditions: result in words
Protocol: as §2

S. typhi 901 = assay type: cell-based; conditions: 901, 18 h, pH 7
[4] = test system: human immunodeficiency virus; assay: XTT anti-HIV assay in CEM-SS cells (strain not stated); assay type: cell-based; conditions: Human immunodeficiency virus 1, anti-HIV activity, read-out: IC₅₀
CEM-SS cells [5] = test system: CEM-SS cells
Protocol: as §2

Structure (SMILES)	ID₅₀ [1] [µg/mL]	TD₅₀ (Vero cell) [µg/mL]	IC50 (HIV-1 RF) [nM]	IC50 (HIV-1 IIIb) [nM]	IC50 (HIV-2 CBL-20) [nM]	CC50 [2] [nM]	cytotoxicity (CEM-SS cells [3])	MIC (S. typhi 901) [µg/mL]	solubility (in alkaline water)	solubility (in dimethyl sulfoxide, dimethylformamide, methanol and ethanol)	solubility (in water, ethyl acetate, chloroform, benzene, n-hexane and petroleum ether)	IC50 [4] [nM]	cytotoxicity (CEM-SS cells [5])
CC[C@H](C)[C@@H]1NC(=O)[C@H](C)NC(=O)[C@H](Cc2ccc(O)cc2)NC(=O)CNC(=O)[C@@H]2CSSC[C@@H]3NC(=O)C[C@H](NC(=O)[C@H](CC(N)=O)NC(=O)[C@H](CSSC[C@@H](C(=O)N[C@@H](Cc4ccccc4)C(=O)N[C@@H](Cc4c[nH]c5ccccc45)C(=O)O)NC(=O)[C@H](C(C)C)NC1=O)NC(=O)[C@H](CO)NC(=O)CNC(=O)[C@H](C(C)C)NC(=O)CNC(=O)[C@H](CC(C)C)NC3=O)C(=O)N[C@@H](Cc1ccccc1)C(=O)N[C@@H](C)C(=O)NCC(=O)N2 [BU-4724V] (CLGVGSCNDFAGCGYAIVCFW-OH; disulfide 1-13, 7-19; lactam N-9; C-terminus assumed)	48	>100	90 to 600	460	230	~150000	very weak cytotoxicity	>100	slightly soluble	soluble	insoluble	–	–
O=c1[nH]cnc2c1ncn2[C@H]1CC[C@@H](CO)O1 [ddI, 2',3'-Dideoxyinosine]	–	–	–	–	–	–	–	–	–	–	–	1000 to 2000	very weak cytotoxicity
Nc1nc2c(ncn2COCCO)c(=O)[nH]1 [Acyclovir]	0.28	>100	–	–	–	–	–	–	–	–	–	–	–
